Reference: PubChem BioAssay AID179 (DTP/NCI, 2004)
Activity calls are given as the source filed them.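 The calls were made as follows: active = compounds giving half or more protection of infected cells from virus-caused growth loss, again on retest; inactive = the rest.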 Where a SMILES comes first, the peptide text is derived from it. [ ]: non-standard residue; d: D form. The star is where a group is joined. ξ: configuration not given here. ξD = NC(CC(=O)O)C(=O)O; Boc = CC(C)(C)OC(=O)*; Aib = CC(C)(N)C(=O)O; OBn = c1ccc(CO*)cc1

System: CEM cells HIV-1 protection, formazan growth assay
Assay: NCI AIDS Antiviral Assay
Conditions: for IC50: measured here: growth of uninfected CEM cells
Summary of the method: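 Protection of CEM cells against HIV-1 was scored from cell growth (soluble formazan) across five concentrations, with parallel uninfected cells. Lack of protection may reflect toxicity.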

SMILES	EC50	IC50	outcome
NC(N)=NS(=O)(=O)c1ccc(Nc2c3ccccc3nc3c(C(=O)N4CCN(CCO)CC4)ccc(Cl)c23)cc1	> 38 µM	> 38 µM	–
N=C(OC1CCCCC1)N1CCOCC1	> 200 µM	> 200 µM	–
COc1cc(N=Nc2cc(NC(C)=O)c(N=Nc3ccc(S(=O)(=O)O)cc3)cc2S(=O)(=O)O)c(C)cc1N=Nc1ccc(NC(=O)c2ccc(N)cc2)cc1C	8.71 µM	97.7 µM	–
Nc1nc(Cl)cc(NCC2(CO)CC(CCCc3ccccc3)C2)n1 (configuration not stated)	> 20 µM	0.0603 µM	–
O=S1(=O)CS(=O)(=O)CS(=O)(=O)C1	> 200 µM	89.1 µM	–
CC(C)CC(NC(=O)OCC[P+](c1ccccc1)(c1ccccc1)c1ccccc1)C(=O)O (configuration not stated)	> 200 µM	9.12 µM	–
COC(=O)c1ccc([As](=O)(O)O)cc1C(C)=O	> 200 µM	148 µM	–
CCCCC(CCCCCC(CCCC)C1NC(C)Cc2cc(OC)c(OC)cc21)C1NC(C)Cc2cc(OC)c(OC)cc21 (configuration not stated)	> 200 µM	0.447 µM	–
O=C1CC2(CCc3ccccc32)C(=O)N1CN1CCN(c2ccccn2)CC1 (configuration not stated)	> 87.1 µM	70.8 µM	–
COC(CCC[N+](C)(C)C)CC[N+](C)(C)C (configuration not stated)	> 100 µM	> 100 µM	–
COC(=O)C1CCC(=O)N1C(c1cc(OC)c(OC)c(OC)c1)c1cccc2ccccc12 (configuration not stated)	> 200 µM	83.2 µM	–
Cc1ccccc1N=Nc1ccc(N/N=C2/CCCNC2=O)c(C)c1	> 200 µM	182 µM	–
COc1cc(C2c3cc4c(cc3OC(O)C2C)OCO4)cc(OC)c1O (configuration not stated)	> 200 µM	1.05 µM	–
C=CCNC(=S)NNC(=O)c1c(C)nc2sccn12	> 851 µM	813 µM	–
COC1CC(OC2C(C)OC(OC3C(C)OC(OC4C(C)OC(O[C@H]5CC[C@@]6(C)C(=CC[C@]7(O)[C@@H]6C[C@@H](O)[C@@]6(C)[C@]7(O)CC[C@@]6(O)C(C)=O)C5)CC4OC)CC3OC)CC2OC)OC(C)C1O (some centres not stated)	> 200 µM	> 200 µM	–
O=S1c2ccccc2N=C(c2ccc3ccccc3c2)CC1c1ccccc1F (configuration not stated)	> 18.2 µM	> 18.2 µM	–
C=C1C(=O)OC2CC(C)C(C(CC(C)=O)OC(C)=O)=CCC12 (configuration not stated)	> 324 µM	1.58 µM	–
CC1C(c2ccccc2O)c2cc3c(cc2OC1N1CCOCC1)OCO3 (configuration not stated)	> 200 µM	42.7 µM	–
COC(=O)CCC(=O)CC1CC(=O)C2CCCN12 (configuration not stated)	–	–	inactive
COc1cccc(C=O)c1[O-].COc1cccc(C=O)c1[O-].[Ni+2]	> 50.1 µM	35.5 µM	–
CSc1nc2c(c(=O)[nH]1)N=C(c1ccc(Cl)cc1)CC(c1ccccc1)N2 (configuration not stated)	> 200 µM	33.1 µM	–
CCOC(=O)/C(=C/c1ccc(C(=O)OC)cc1)N(CC)CC	> 427 µM	67.6 µM	–

SMILES	EC50	IC50	outcome
O=C(C[n+]1ccc2ccccc2c1)c1ccc(O)c(O)c1	–	–	inactive
COC(=O)C[C@](O)(CCCC(C)(C)O)C(=O)O[C@@H]1C(OC)=C[C@]23CCCN2CCc2cc4c(cc2[C@H]13)OCO4	> 2.29 µM	0.0138 µM	–
Cn1c(=O)cn[nH]c1=O	> 200 µM	> 200 µM	–
CCOC(=O)C[P+](c1cccc(OC)c1)(c1cccc(OC)c1)c1cccc(OC)c1	> 200 µM	46.8 µM	–
O=S(=O)(O)SCC1=NCCN1	> 200 µM	> 200 µM	–
O=C(CC(=O)N1N=C(n2ccc3ccccc32)CC1c1ccccc1)Nc1ccccc1Cl (configuration not stated)	> 8.32 µM	> 8.32 µM	–
COc1cccc(C2SCC(=O)N2c2ccc(-n3c(-c4ccccc4)nc4ccccc4c3=O)cc2)c1OC (configuration not stated)	> 200 µM	> 200 µM	–
Nc1nc(=S)[nH]c(C(=O)Nc2ccc(Cl)c(Cl)c2)c1-c1ccc(Cl)cc1	> 43.7 µM	> 43.7 µM	–
O=S(=O)(c1ccccc1)C1(Sc2ccccc2)CC(Br)[C@@H](Br)C1 (some centres not stated)	> 15.1 µM	> 15.1 µM	–
CSc1nc(C)cc(N(C)c2ccccc2)n1	> 200 µM	32.4 µM	–
CC(=O)O[C@H]1[C@@H](OC2CCCC2(c2ccccc2)c2ccccc2)O[N+]([O-])=C[C@@H]1c1ccccc1 (some centres not stated)	> 200 µM	3.09 µM	–
C=C1C(=O)C23OC2C1CCC(=O)C1(C)CC[C@H](OC(C)=O)C(C)(C)[C@H]1CC3=O (some centres not stated)	> 174 µM	2.29 µM	–
CC1=NN(C(=O)c2ccccc2)C(C)C1N=Nc1ccccc1C(=O)O (configuration not stated)	–	–	inactive
COc1ccc(C2SCC(=O)N2c2ccc(-n3c(-c4ccccc4)nc4ccccc4c3=O)cc2)cc1OC (configuration not stated)	> 200 µM	> 200 µM	–
O=C(NNC(=O)/C(=C/c1cccc([N+](=O)[O-])c1)NC(=O)c1ccccc1)Nc1ccc(Cl)cc1	> 38.9 µM	24.5 µM	–
O=C1c2ccccc2-c2nnsc21	> 191 µM	141 µM	–
CCSCCCSCCSCC	> 158 µM	> 158 µM	–
Nc1ccc(C2SCC(=O)N2NS(=O)(=O)c2cccc(C(=O)O)c2)cc1 (configuration not stated)	36.3 µM	132 µM	–
Cc1c(CCCl)c(=O)n2c([nH]c3ccccc32)c1C#N	> 200 µM	7.59 µM	–
CC1=CC2CC(C)=C(CC[C@]3(C)CC[C@H]([C@@H](C)C(=O)O)OO3)C(C)(C)C2CC1 (some centres not stated)	–	–	inactive
CCNc1cc2c3c(c1)CCCN3CCC2	> 200 µM	8.51 µM	–
CC(C)(C)OC(=O)NC(CC(=O)OCc1ccccc1)C(=O)NC(C)(C)C(N)=O (configuration not stated) (Boc-[ξD](OBn)-[Aib]-NH2)	> 200 µM	> 200 µM	–

SMILES	EC50	IC50	outcome
O=C(O)CC1OCC=C2CN3CCC45c6ccccc6NC4C1C2CC35 (configuration not stated)	> 85.1 µM	> 85.1 µM	inactive
O=C1O[C@@H](c2ccccc2)C[C@H]1CN1CCOCC1	–	–	inactive
CCOc1ccc2nc(NC(=O)C(=O)C(c3cnc4ccccc4n3)[N+](=O)[O-])sc2c1 (configuration not stated)	> 155 µM	> 155 µM	–
O=C(O)c1ccc(NC(NC(=O)C(C(F)(F)F)C(F)(F)F)(C(F)(F)F)C(F)(F)F)cc1	> 200 µM	> 200 µM	–
Cc1cn(C2OC(C)(CO)C(O)C2O)c(=O)[nH]c1=O (configuration not stated)	> 912 µM	> 912 µM	–
CCOC(=O)C(C(=O)OCC)C(C(=O)OCC)(C(=O)OCC)C(C(=O)OCC)C(=O)OCC	–	–	inactive
CCOC(=O)NNC(=O)NCCCCNC(=O)NNC(=O)OCC	> 200 µM	> 200 µM	–
Cc1ncc(CO)c(CO)c1OCC(O)CN1CCN(c2ccc(F)cc2)CC1 (configuration not stated)	> 200 µM	97.7 µM	–
N#CC1CC12c1ccccc1C(=O)c1ccccc12 (configuration not stated)	135 µM	145 µM	–
COc1ccc(C2CC(=O)c3c(OC(C)=O)cc(OC(C)=O)cc3O2)cc1OC(C)=O (configuration not stated)	> 200 µM	7.76 µM	–
COc1ccc(C2c3cc4c(cc3OC(N3CCOCC3)C2C)OCO4)cc1OC (configuration not stated)	> 200 µM	7.76 µM	–
CN(C)C(=S)/N=c1\ssc(=S)n1-c1ccccc1	–	–	inactive
CCn1c2c(c3ccccc31)CCSC2(C)CCN(C)C (configuration not stated)	–	–	inactive
CC(C)(C#N)C(C)(C)SSC(C)(C)C(C)(C)C#N	> 178 µM	> 178 µM	–
CC(C)N1C(C)[C@@H](c2ccccc2)O[P@]1(=O)CC1=CCCCC1 (some centres not stated)	–	–	inactive
Nc1ccc(N=Nc2ccc(N=Nc3ccc(N=Nc4cc(S(=O)(=O)O)c5ccccc5c4O)c4ccc(S(=O)(=O)O)cc34)c3ccc(S(=O)(=O)O)cc23)cc1	–	–	active
Oc1ccc(-c2c3ccccc3c(-c3ccc(O)cc3)c3ccccc23)cc1	> 2.75 µM	> 2.75 µM	–
CCC1=NC(N/N=C/c2ccccc2O)=N/C1=C\c1ccccc1O	> 50.1 µM	9.12 µM	–
CCOC(=O)C(N=C(c1ccccc1)c1ccccc1)N(C(=O)OC(C)(C)C)C(=O)OC(C)(C)C (configuration not stated)	–	–	inactive
CN(C)NC(=O)/C(=C/c1ccc(Cl)cc1)NC(=O)c1ccccc1	> 145 µM	> 145 µM	–
O=C(c1ccc(Cl)cc1)c1ccc(OCCCOc2ccc(C(=O)c3ccc(Cl)cc3)cc2)cc1	> 20 µM	> 20 µM	–
O=C1C(=O)c2ccccc2C(O)=C1CCCCCCCCC1CCCCC1	> 200 µM	12 µM	–

SMILES	EC50	IC50	outcome
Cc1cnc2c(c1C)C(=O)c1ccccc1C2=O	–	–	inactive
CC1(C)OC(=O)[C@@](C)([C@H](O)c2ccccc2)O1	–	–	inactive
COc1ccc2c(c1)c1c(n2CCN(C)C)-c2ccccc2CC1	> 200 µM	14.8 µM	–
O=COC1CC(n2ccc(=O)[nH]c2=O)OC1CO (configuration not stated)	> 4570 µM	263 µM	–
CN(C)C1(C#N)CCC2(CC1)OCCO2	–	–	inactive
Nc1ccccc1CN1C(=O)c2ccccc2C1=O	> 200 µM	3.55 µM	–
CCCCCCCCCCCCCCCCCc1nc(C#N)c(N)o1	> 200 µM	25.1 µM	–
N#C/C(=C\c1cccs1)c1ccccc1	> 200 µM	117 µM	–
O=C(O/N=c1/ccc(=O)/c(=N\OC(=O)c2ccccc2)c1=O)c1ccccc1	> 200 µM	47.9 µM	–
CS(=O)(=O)c1nc(N)nc2nc[nH]c12	> 200 µM	> 200 µM	–
O=C1c2cccc3cccc(c23)C(=O)N1CCCN1C(=O)c2cccc3cccc(c23)C1=O	> 200 µM	110 µM	–
CC(C)(C)NNc1c([N+](=O)[O-])cnn(-c2ccccc2)c1=O	> 49 µM	0.251 µM	–
O=C1c2cccnc2S(=O)N1Cc1ccccc1 (configuration not stated)	105 µM	> 200 µM	–
O=C1c2cc3ccccc3cc2C2(c3ccc(Cl)cc3)NCCN12 (configuration not stated)	> 200 µM	32.4 µM	–
Cc1ncc[pH]1 (configuration not stated)	> 138 µM	> 138 µM	–
Cc1nc(N)nc(N)c1N1CCN(c2ccc(S(=O)(=O)N(Cc3ccccc3)Cc3ccccc3)cc2)CC1	0.0501 µM	0.132 µM	–
COC(=O)[C@H](Cc1ccc(O)cc1)NC(=O)[C@H](Cc1ccc(O)cc1)NC(=O)OC(C)(C)C (HELM PEPTIDE1{[CC(C)(C)OC(=O)[*:2]].Y.Y.[CO[*:1]]}$$$$V2.0)	> 200 µM	93.3 µM	–
CC(C)c1ccccc1NC(=O)C(=O)Cc1nc2ccccc2s1	–	–	inactive
O=C(OC[C@H]1OCC(=O)[C@@]2(OC(=O)c3ccccc3)[C@@H]1[C@H]1C=C[C@@H]2C1)c1ccccc1	–	–	inactive
COc1cc(/C=C/c2ccc3ccccc3n2)cc(OC)c1OC	> 22.4 µM	1.48 µM	–
